± gives the standard deviation of the averaged measurements.
Each compound was assayed on HL-60 (assay: cell viability (% survival relative to DMSO control); higher = less cytotoxic). Conditions: 0.001 µM; 72 h; co-treatment: AZD3965 100 nM.
How it was run: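 For each screen, HL-60 cells in RPMI 1640 with 10% FBS carried either DMSO or 100 nM of one of three metabolic inhibitors while the full library was applied at five tenfold concentrations, 1–10,000 nM, in duplicate. Plates were 384-well and were kept 72 h at 37 °C, 5% CO2. Viability, measured by CellTiter-Glo, was normalised to wells with DMSO and with 10 μM proteasome inhibitor. Where area under the curve appears, it was fitted by four-parameter log-logistic models in drc and PharmacoGx.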
`NCc1ccc(S(N)(=O)=O)cc1` [4-Homosulfanilamide] gave a cell viability of 102 ± 3.3%.
With `Oc1ncc(F)c(O)n1` [5-fluorouracil] the cell viability was 97.8 ± 1.2%.
`NCc1ccc(-c2cccnc2)s1` [(5-Pyrid-3-YLTHIEN-2-YL)METHYLAMINE] showed a cell viability of 103 ± 3.5%.
For `CC(=O)N[C@@H](CS)C(=O)O` [Acetylcysteine], the cell viability was 99.1 ± 8%.
Work on `CCCCC/C=C\C/C=C\C/C=C\C/C=C\CCCC(=O)C(F)(F)F` [Arachidonyl trifluoromethyl ketone] yielded a cell viability of 101 ± 1.4%.
Work on `O=[As]O[As]=O` (centres undefined) [Arsenic trioxide] yielded a cell viability of 103 ± 2.1%.

Same assay, conditions: 0.001 µM; 72 h; co-treatment: DMSO vehicle
`CC(=O)N1CCN(c2ccc(OC[C@@H]3CO[C@@](Cn4ccnc4)(c4ccc(Cl)cc4Cl)O3)cc2)CC1` (racemic) [Ketoconazole] was tested, and the cell viability was 99.7 ± 1.4%.
`CCC(CC#N)OC(=O)N[C@@H](C)c1cccc(NC(=O)Nc2ccc(-c3cnco3)c(OC)c2)c1` (stereo in doubt) [AVN-944] was tested, and the cell viability was 99.36 ± 0.12%.
For `OC[C@H]1OC(O)C[C@@H](O)[C@@H]1O` (some centres undefined) [2-deoxyglucose], the cell viability was 104 ± 3%.
In the case of `O=C(C(=O)c1ccc(Br)cc1)c1ccc(Br)cc1` [4,4'-Dibromobenzil], the cell viability is reported as 102 ± 7.3%.
For `NS(=O)(=O)c1ccc(NC(=O)Cc2ccccc2)cc1` [4-(2-Phenylacetamido)Benzenesulfonamide], the cell viability was 92.5 ± 3.3%.
Compound `NCc1ccc(S(N)(=O)=O)cc1` [4-Homosulfanilamide] has a cell viability of 103.6 ± 0.27%.
In the case of `Oc1ncc(F)c(O)n1` [5-fluorouracil], the cell viability is reported as 101.99 ± 0.046%.
Compound `NCc1ccc(-c2cccnc2)s1` [(5-Pyrid-3-YLTHIEN-2-YL)METHYLAMINE] has a cell viability of 103 ± 1.9%.
Compound `CC(=O)N[C@@H](CS)C(=O)O` [Acetylcysteine] has a cell viability of 94.2 ± 10%.
For `CCCCC/C=C\C/C=C\C/C=C\C/C=C\CCCC(=O)C(F)(F)F` [Arachidonyl trifluoromethyl ketone], the cell viability was 96.7 ± 2.5%.
In the case of `O=[As]O[As]=O` (centres undefined) [Arsenic trioxide], the cell viability is reported as 98.8 ± 1.9%.

Same assay, conditions: 0.001 µM; 72 h; co-treatment: GSK2194069 100 nM
`CC(=O)N1CCN(c2ccc(OC[C@@H]3CO[C@@](Cn4ccnc4)(c4ccc(Cl)cc4Cl)O3)cc2)CC1` (racemic) [Ketoconazole] showed a cell viability of 100 ± 3.6%.
For `CCC(CC#N)OC(=O)N[C@@H](C)c1cccc(NC(=O)Nc2ccc(-c3cnco3)c(OC)c2)c1` (stereo in doubt) [AVN-944], the cell viability was 99.2 ± 2%.
In the case of `OC[C@H]1OC(O)C[C@@H](O)[C@@H]1O` (some centres undefined) [2-deoxyglucose], the cell viability is reported as 102 ± 4.2%.
In the case of `O=C(C(=O)c1ccc(Br)cc1)c1ccc(Br)cc1` [4,4'-Dibromobenzil], the cell viability is reported as 105 ± 3%.
In the case of `NS(=O)(=O)c1ccc(NC(=O)Cc2ccccc2)cc1` [4-(2-Phenylacetamido)Benzenesulfonamide], the cell viability is reported as 104 ± 13%.
`NCc1ccc(S(N)(=O)=O)cc1` [4-Homosulfanilamide] was tested, and the cell viability was 101 ± 4.4%.
In the case of `Oc1ncc(F)c(O)n1` [5-fluorouracil], the cell viability is reported as 99.6 ± 4.6%.
`NCc1ccc(-c2cccnc2)s1` [(5-Pyrid-3-YLTHIEN-2-YL)METHYLAMINE] was tested, and the cell viability was 105 ± 2.2%.
`CC(=O)N[C@@H](CS)C(=O)O` [Acetylcysteine] was tested, and the cell viability was 97.8 ± 8.2%.
Compound `CCCCC/C=C\C/C=C\C/C=C\C/C=C\CCCC(=O)C(F)(F)F` [Arachidonyl trifluoromethyl ketone] has a cell viability of 88.4 ± 31%.
`O=[As]O[As]=O` (centres undefined) [Arsenic trioxide] was tested, and the cell viability was 102 ± 5.6%.

Same assay, conditions: 0.001 µM; 72 h; co-treatment: pictilisib 100 nM
`CC(=O)N1CCN(c2ccc(OC[C@@H]3CO[C@@](Cn4ccnc4)(c4ccc(Cl)cc4Cl)O3)cc2)CC1` (racemic) [Ketoconazole] gave a cell viability of 88.8 ± 17%.
Work on `CCC(CC#N)OC(=O)N[C@@H](C)c1cccc(NC(=O)Nc2ccc(-c3cnco3)c(OC)c2)c1` (stereo in doubt) [AVN-944] yielded a cell viability of 102.95 ± 0.023%.
Compound `OC[C@H]1OC(O)C[C@@H](O)[C@@H]1O` (some centres undefined) [2-deoxyglucose] has a cell viability of 102 ± 5.7%.
Work on `O=C(C(=O)c1ccc(Br)cc1)c1ccc(Br)cc1` [4,4'-Dibromobenzil] yielded a cell viability of 109 ± 6.4%.
With `NS(=O)(=O)c1ccc(NC(=O)Cc2ccccc2)cc1` [4-(2-Phenylacetamido)Benzenesulfonamide] the cell viability was 101 ± 1.3%.
`NCc1ccc(S(N)(=O)=O)cc1` [4-Homosulfanilamide] showed a cell viability of 98.6 ± 3.8%.
`Oc1ncc(F)c(O)n1` [5-fluorouracil] was tested, and the cell viability was 102 ± 3.1%.
In the case of `NCc1ccc(-c2cccnc2)s1` [(5-Pyrid-3-YLTHIEN-2-YL)METHYLAMINE], the cell viability is reported as 104 ± 11%.
For `CC(=O)N[C@@H](CS)C(=O)O` [Acetylcysteine], the cell viability was 103 ± 9.8%.
`CCCCC/C=C\C/C=C\C/C=C\C/C=C\CCCC(=O)C(F)(F)F` [Arachidonyl trifluoromethyl ketone] gave a cell viability of 99.6 ± 20%.
Work on `O=[As]O[As]=O` (centres undefined) [Arsenic trioxide] yielded a cell viability of 94.24 ± 0.0034%.

Same assay, conditions: 0.01 µM; 72 h; co-treatment: AZD3965 100 nM
`CC(=O)N1CCN(c2ccc(OC[C@@H]3CO[C@@](Cn4ccnc4)(c4ccc(Cl)cc4Cl)O3)cc2)CC1` (racemic) [Ketoconazole] showed a cell viability of 95.6 ± 8.3%.
`CCC(CC#N)OC(=O)N[C@@H](C)c1cccc(NC(=O)Nc2ccc(-c3cnco3)c(OC)c2)c1` (stereo in doubt) [AVN-944] was tested, and the cell viability was 102 ± 13%.
With `OC[C@H]1OC(O)C[C@@H](O)[C@@H]1O` (some centres undefined) [2-deoxyglucose] the cell viability was 110 ± 2.7%.
Compound `O=C(C(=O)c1ccc(Br)cc1)c1ccc(Br)cc1` [4,4'-Dibromobenzil] has a cell viability of 105 ± 4.3%.
`NS(=O)(=O)c1ccc(NC(=O)Cc2ccccc2)cc1` [4-(2-Phenylacetamido)Benzenesulfonamide] showed a cell viability of 100 ± 1.7%.
`NCc1ccc(S(N)(=O)=O)cc1` [4-Homosulfanilamide] showed a cell viability of 106 ± 5.2%.
`Oc1ncc(F)c(O)n1` [5-fluorouracil] gave a cell viability of 98.3 ± 0.43%.
`NCc1ccc(-c2cccnc2)s1` [(5-Pyrid-3-YLTHIEN-2-YL)METHYLAMINE] gave a cell viability of 78 ± 37%.
`CC(=O)N[C@@H](CS)C(=O)O` [Acetylcysteine] gave a cell viability of 99.8 ± 1.2%.
With `CCCCC/C=C\C/C=C\C/C=C\C/C=C\CCCC(=O)C(F)(F)F` [Arachidonyl trifluoromethyl ketone] the cell viability was 104 ± 4.1%.
`O=[As]O[As]=O` (centres undefined) [Arsenic trioxide] showed a cell viability of 101.5 ± 0.8%.

Same assay, conditions: 0.01 µM; 72 h; co-treatment: DMSO vehicle
Compound `CC(=O)N1CCN(c2ccc(OC[C@@H]3CO[C@@](Cn4ccnc4)(c4ccc(Cl)cc4Cl)O3)cc2)CC1` (racemic) [Ketoconazole] has a cell viability of 96.9 ± 3.1%.
`CCC(CC#N)OC(=O)N[C@@H](C)c1cccc(NC(=O)Nc2ccc(-c3cnco3)c(OC)c2)c1` (stereo in doubt) [AVN-944] gave a cell viability of 97.01 ± 0.85%.
Work on `OC[C@H]1OC(O)C[C@@H](O)[C@@H]1O` (some centres undefined) [2-deoxyglucose] yielded a cell viability of 101 ± 8.1%.
With `O=C(C(=O)c1ccc(Br)cc1)c1ccc(Br)cc1` [4,4'-Dibromobenzil] the cell viability was 100 ± 2.6%.
`NS(=O)(=O)c1ccc(NC(=O)Cc2ccccc2)cc1` [4-(2-Phenylacetamido)Benzenesulfonamide] showed a cell viability of 94.4 ± 3%.
Work on `NCc1ccc(S(N)(=O)=O)cc1` [4-Homosulfanilamide] yielded a cell viability of 105 ± 4.4%.
With `Oc1ncc(F)c(O)n1` [5-fluorouracil] the cell viability was 97.89 ± 0.79%.
`NCc1ccc(-c2cccnc2)s1` [(5-Pyrid-3-YLTHIEN-2-YL)METHYLAMINE] was tested, and the cell viability was 101 ± 5.8%.
For `CC(=O)N[C@@H](CS)C(=O)O` [Acetylcysteine], the cell viability was 101.13 ± 0.024%.
`CCCCC/C=C\C/C=C\C/C=C\C/C=C\CCCC(=O)C(F)(F)F` [Arachidonyl trifluoromethyl ketone] was tested, and the cell viability was 102 ± 8.7%.
In the case of `O=[As]O[As]=O` (centres undefined) [Arsenic trioxide], the cell viability is reported as 100 ± 1.3%.

Same assay, conditions: 0.01 µM; 72 h; co-treatment: GSK2194069 100 nM
`CC(=O)N1CCN(c2ccc(OC[C@@H]3CO[C@@](Cn4ccnc4)(c4ccc(Cl)cc4Cl)O3)cc2)CC1` (racemic) [Ketoconazole] was tested, and the cell viability was 78.8 ± 21%.
With `CCC(CC#N)OC(=O)N[C@@H](C)c1cccc(NC(=O)Nc2ccc(-c3cnco3)c(OC)c2)c1` (stereo in doubt) [AVN-944] the cell viability was 105 ± 7.9%.
`OC[C@H]1OC(O)C[C@@H](O)[C@@H]1O` (some centres undefined) [2-deoxyglucose] was tested, and the cell viability was 107 ± 8%.

Source: the supplement of paper PMC8671470
